According to patent publication US11427526B2, “Method of preparing hydroxytyrosol cinnamic acid ester with antioxidant and antibacterial activities” (XI'AN KANGYUANSHENG BIOMEDICAL TECHNOLOGY CO., LTD., priority 2020, dated 2022):
Values after ≈ are worked out from the molar mass of the structure shown.

Tests used:
[1] = DPPH radical scavenging activity assay; details: for DPPH clearance rate: n = 3
Method: The antioxidant activity of the hydroxytyrosol cinnamic acid ester was measured by a DPPH radical scavenging activity assay. 2,2-Diphenyl-1-picryl hydrazyl (DPPH) is an organic compound composed of a stable organic radical. In the DPPH molecule, due to the presence of multiple electron-withdrawing —NO2 and large π bonds of the benzene ring, nitrogen free radical is stabilized. Its methanol solution is purple and has a maximum absorption peak at 517 nm. After the addition of an antioxidant, DPPH captures an electron to be paired with the free electron, and the purple fades and turns into a yellow substance. The absorption at 517 nm disappears, and the degree of fading is quantitatively related to the number of electrons it captures. Based on this principle, a spectrophotometer is used to detect the change of the absorbance of the DPPH radical and the sample solution, and the ability of the sample to provide hydrogen atoms and scavenge free radicals can be measured. measuring exact amount of 2,2-diphenyl-1-picryl hydrazyl (DPPH) and dissolving in toluene to prepare a 0.2 mmoL/L DPPH solution, stored at 0° C. in dark. Vc (positive control), hydroxytyrosol cinnamic acid ester (sample), hydroxytyrosol (control) and cinnamic acid (control). The sample solution was subjected to gradient dilution with toluene, and three sets of controls were separately dissolved in a test tube with a certain amount of toluene to prepare the same concentration gradient as the sample. Sample liquid absorbance measurement: Take 2 mL of sample solution (Table 1 Vc, B, C), add 2 mL of DPPH solution with concentration of 2×10^−4 moL/L, mix and react in the dark at room temperature for 30 min, adjust to zero with toluene, and measure at 517 nm. The absorbance Ai was simultaneously measured for the absorbance Aj of 2 mL of toluene mixed with 2 mL of the sample solution and the absorbance Ao of 2 mL of DPPH solution mixed with 2 mL of toluene (The experimental results are shown in Table 2). Clearance calculation: Clearance Rate (%)=[1−(Ai−Aj)/Ao]*100%

[2] = tested on: carbapenem-resistant Acinetobacter baumannii CR-AB 18-560; assay: MIC by microbroth dilution, CR-AB 18-560; format: cell-based; details: strain CR-AB 18-560
Method: (§1) The minimal inhibitory concentrations (MIC) of the compounds were determined by microbroth dilution method with gentamicin, cefazolin sodium and ceftriaxone sodium as positive control.
(§2) The experimental strains included methicillin-resistant Gram-positive bacteria: methicillin-resistant Straphylococcus aureus MRSA 18-222, 18-575; multiple drug-resistant Gram-negative bacteria: vancomycin-resistant Enterococci VRE 18-80, 18-94, multidrug-resistant Pseudomonas aeruginosa MDR-PA 18-1774, 18-202, carbapenem-resistant Acinetobacter baumannii CR-AB 18-183, 18-560. All the experimental strains were donated by Huashan Hospital affiliated to Fudan University (Institute of antibiotics, Fudan University) and used after routine identification.
(§3) Preparation of MHB medium: 20.0 g MHB medium was added to 1 L distilled water, boiled until completely dissolved, packed in conical bottles and sterilized at 121° C. for 15 min.
(§4) The experimental strain was cultured to the logarithmic growth phase: under aseptic condition, the experimental strain was inoculated into 100 mL MHB medium and incubated in a constant temperature and humidity incubator at 37° C. for 20-22 hours.
(§5) Preparation of storage solution: weighing the sample to be tested, dissolving it with 1% DMSO solution, preparing a storage solution with a concentration of 2560 μg/mL, weighing a positive reference substance, dissolving it with aseptic distilled water, and configuring a storage solution with a concentration of 2560 μg/mL.
(§6) Preparation of bacterial suspension: under aseptic condition, the experimental strains cultured to logarithmic growth phase were adjusted to 0.5 MCF turbidity standard with MHB medium and diluted according to 1:10, and the bacterial suspension with concentration of 10^6 CFU/mL was prepared for standby.
(§7) Dilution of storage solution and inoculation of experimental strain: under aseptic condition, the storage solution was diluted to 256 μg/mL solution. Taking a sterile 96-well plate, adding 200 μL MHB medium to the 12th well, and adding 100 μL MHB medium to each well. Adding 100 μL of positive control solution to the first well, mixing well, and taking 100 μL and discard. Adding 100 μL of the compound sample solution to the second well, mixing well, and then pipetting 100 μL to the third well. After mixing, pipetting 100 μL to the fourth well, and diluting to the 11th well in the same way. Finally, 100 μL was pipetted from the 11th well and discarded. The 12th hole was the growth control without drugs. The concentration of the positive reference substance was 128 μg/mL, the concentrations of the sample solution were 128, 64, […] respectively. Then, 100 μL of the prepared bacterial suspension was added to each well, so that the final concentration of the bacterial liquid in each well was 5×10^5 CFU/mL.
(§8) Incubation: Covering the 96-well plate inoculated with the experimental strains, and incubating in a constant temperature and humidity box at 37° C. for 20-22 hours.

[3] = tested on: carbapenem-resistant Acinetobacter baumannii CR-AB 18-183; assay: MIC by microbroth dilution, CR-AB 18-183; format: cell-based; details: strain CR-AB 18-183
Method: as §1, §2, §3, §4, §5, §6, §7, §8

[4] = tested on: multidrug-resistant Pseudomonas aeruginosa MDR-PA 18-202; assay: MIC by microbroth dilution, MDR-PA 18-202; format: cell-based; details: strain MDR-PA 18-202
Method: as §1, §2, §3, §4, §5, §6, §7, §8

[5] = tested on: multidrug-resistant Pseudomonas aeruginosa MDR-PA 18-174; assay: MIC by microbroth dilution, MDR-PA 18-174; format: cell-based; details: for Minimum bacteriostatic concentration: strain MDR-PA 18-174
Method: as §1, §2, §3, §4, §5, §6, §7, §8

[6] = tested on: methicillin-resistant Straphylococcus aureus MRSA 18-222; assay: MIC by microbroth dilution, MRSA 18-222; format: cell-based; details: for Minimum bacteriostatic concentration: strain MRSA 18-222
Method: as §1, §2, §3, §4, §5, §6, §7, §8

[7] = tested on: vancomycin-resistant Enterococci VRE 18-94; assay: MIC by microbroth dilution, VRE 18-94; format: cell-based; details: strain VRE 18-94
Method: as §1, §2, §3, §4, §5, §6, §7, §8

[8] = tested on: methicillin-resistant Straphylococcus aureus MRSA 18-575; assay: MIC by microbroth dilution, MRSA 18-575; format: cell-based; details: strain MRSA 18-575
Method: as §1, §2, §3, §4, §5, §6, §7, §8

[9] = tested on: vancomycin-resistant Enterococci VRE 18-80; assay: MIC by microbroth dilution, VRE 18-80; format: cell-based; details: strain VRE 18-80
Method: as §1, §2, §3, §4, §5, §6, §7, §8

drug-resistant bacteria = assay: Antibacterial activity test, summary over all experimental strains; format: cell-based; details: text summary of FIGS. 2-3 and Table 4
Method: as §1, §2, §3
The experimental strain was cultured to the logarithmic growth phase: under aseptic condition, the experimental strain was inoculated into 100 mL MHB medium and incubated in a constant temperature and humidity incubator at 37° C. for 20-22 hours. […]

O=C1O[C@H]([C@@H](O)CO)C(O)=C1O [Vc]
DPPH clearance rate ([1]; 1.76 ppm): 23.16% | DPPH clearance rate ([1]; 8.80 ppm): 33.47% | DPPH clearance rate ([1]; 21.12 ppm): 79.63% | DPPH clearance rate ([1]; 42.24 ppm): 89.55% | DPPH clearance rate ([1]; 79.20 ppm): 97.42% | DPPH clearance rate ([1]; 112.64 ppm): 97.53% | DPPH clearance rate ([1]; 281.60 ppm): 98.29% | DPPH clearance rate ([1]; 492.80 ppm): 99.06% | DPPH clearance rate ([1]; 792.00 ppm): 99.10% | DPPH clearance rate ([1]; 915.20 ppm): 99.28%

CO/N=C(\C(=O)N[C@@H]1C(=O)N2C(C(=O)O)=C(CSc3nc(=O)c(=O)[nH]n3C)CS[C@H]12)c1csc(N)n1 [Ceftriaxone sodium]
Minimum bacteriostatic concentration [2]: >128 µg/mL | Minimum bacteriostatic concentration [3]: >128 µg/mL | Minimum bacteriostatic concentration [4]: 16 µg/mL | Minimum bacteriostatic concentration [5]: 128 µg/mL | Minimum bacteriostatic concentration [6]: >128 µg/mL | Minimum bacteriostatic concentration [7]: >128 µg/mL | Minimum bacteriostatic concentration [8]: >128 µg/mL | Minimum bacteriostatic concentration [9]: 8 µg/mL

Gentamicin
Minimum bacteriostatic concentration [2]: >128 µg/mL | Minimum bacteriostatic concentration [3]: >128 µg/mL | Minimum bacteriostatic concentration [4]: 0.0625 µg/mL | Minimum bacteriostatic concentration [5]: 0.0625 µg/mL | Minimum bacteriostatic concentration [6]: 128 µg/mL | Minimum bacteriostatic concentration [7]: >128 µg/mL | Minimum bacteriostatic concentration [8]: 2 µg/mL | Minimum bacteriostatic concentration [9]: 0.0625 µg/mL

O=C(/C=C\c1ccccc1)OCCc1ccc(O)c(O)c1 [Hydroxytyrosol cinnamic acid ester, (Z)-3,4-Dihydroxyphenethyl 3-Phenylacrylate]
Minimum bacteriostatic concentration [2]: >128 µg/mL | antioxidant activity [1]: excellent antioxidant activity | DPPH clearance rate ([1]; 1.76 ppm): 0.56% | DPPH clearance rate ([1]; 8.80 ppm): 16.52% | DPPH clearance rate ([1]; 21.12 ppm): 31.75% | DPPH clearance rate ([1]; 42.24 ppm): 43.52% | DPPH clearance rate ([1]; 79.20 ppm): 55.11% | DPPH clearance rate ([1]; 112.64 ppm): 68.53% | DPPH clearance rate ([1]; 281.60 ppm): 76.22% | DPPH clearance rate ([1]; 492.80 ppm): 80.95% | DPPH clearance rate ([1]; 792.00 ppm): 84.32% | DPPH clearance rate ([1]; 915.20 ppm): 85.03% | Minimum bacteriostatic concentration [3]: >128 µg/mL | Minimum bacteriostatic concentration [4]: >128 µg/mL | MIC ([5]; multi-drug resistant Pseudomonas aeruginosa MDR-PA (text summary, strain number not given)): 64 µg/mL (≈ 225 µM) | Minimum bacteriostatic concentration [5]: 64 µg/mL | MIC ([6]; Staphylococcus aureus, multi-drug resistant Straphylococcus aureus MRSA (text summary, strain number not given)): 32 µg/mL (≈ 113 µM) | Minimum bacteriostatic concentration [6]: 32 µg/mL | Minimum bacteriostatic concentration [7]: >128 µg/mL | Minimum bacteriostatic concentration [8]: >128 µg/mL | Minimum bacteriostatic concentration [9]: >128 µg/mL

O=C(O)C=Cc1ccccc1 [Cinnamic acid]
Minimum bacteriostatic concentration [2]: >128 µg/mL | DPPH clearance rate ([1]; 1.76 ppm): 6.45% | DPPH clearance rate ([1]; 8.80 ppm): 8.20% | DPPH clearance rate ([1]; 21.12 ppm): 14.52% | DPPH clearance rate ([1]; 42.24 ppm): 20.33% | DPPH clearance rate ([1]; 79.20 ppm): 31.75% | DPPH clearance rate ([1]; 112.64 ppm): 38.62% | DPPH clearance rate ([1]; 281.60 ppm): 54.12% | DPPH clearance rate ([1]; 492.80 ppm): 59.60% | DPPH clearance rate ([1]; 792.00 ppm): 70.53% | DPPH clearance rate ([1]; 915.20 ppm): 71.89% | Minimum bacteriostatic concentration [3]: >128 µg/mL | Minimum bacteriostatic concentration [4]: >128 µg/mL | Minimum bacteriostatic concentration [5]: >128 µg/mL | Minimum bacteriostatic concentration [6]: >128 µg/mL | Minimum bacteriostatic concentration [7]: >128 µg/mL | Minimum bacteriostatic concentration [8]: >128 µg/mL | Minimum bacteriostatic concentration [9]: >128 µg/mL | inhibitory effect on drug-resistant bacteria (drug-resistant bacteria): no inhibitory effect

OCCc1ccc(O)c(O)c1 [Hydroxytyrosol]
Minimum bacteriostatic concentration [2]: >128 µg/mL | Minimum bacteriostatic concentration [3]: >128 µg/mL | Minimum bacteriostatic concentration [4]: >128 µg/mL | Minimum bacteriostatic concentration [5]: >128 µg/mL | Minimum bacteriostatic concentration [6]: >128 µg/mL | Minimum bacteriostatic concentration [7]: >128 µg/mL | Minimum bacteriostatic concentration [8]: >128 µg/mL | Minimum bacteriostatic concentration [9]: >128 µg/mL | inhibitory effect on drug-resistant bacteria (drug-resistant bacteria): no inhibitory effect

Cc1nnc(SCC2=C(C(=O)O)N3C(=O)[C@@H](NC(=O)Cn4cnnn4)[C@H]3SC2)s1 [Cefazolin sodium]
Minimum bacteriostatic concentration [2]: >128 µg/mL | Minimum bacteriostatic concentration [3]: >128 µg/mL | Minimum bacteriostatic concentration [4]: 128 µg/mL | Minimum bacteriostatic concentration [5]: 8 µg/mL | Minimum bacteriostatic concentration [6]: >128 µg/mL | Minimum bacteriostatic concentration [7]: >128 µg/mL | Minimum bacteriostatic concentration [8]: >128 µg/mL | Minimum bacteriostatic concentration [9]: 32 µg/mL
